Results as given in ChEMBL document CHEMBL2176983, “Hispidin analogue davallialactone attenuates carbon tetrachloride-induced hepatotoxicity in mice” (J Nat Prod, 2012).
Calls of active or inactive are those of the source. The calls are words filed in the database; no cut-off is given here.

Tests used:
Format in all cases: functional, organism-based
[1] = test system: Mus musculus; test: Hepatoprotective activity in CCL4-induced FVB mouse assessed as restoration of Cu/Zn SOD expression at 2.5 to 10 mg/kg, sc administered for 3 consecutive days prior CCL4 challenge measured 12 to 24 hrs post challenge by Western blot method relative to control
[2] = test system: Mus musculus; test: Hepatoprotective activity in CCL4-induced FVB mouse assessed as decrease in iNOS expression at 2.5 to 10 mg/kg, sc administered for 3 consecutive days prior CCL4 challenge measured 12 to 24 hrs post challenge by Western blot method relative to control
[3] = test system: Mus musculus; test: Hepatoprotective activity in CCL4-induced FVB mouse assessed as reduction in serum MDA level at 2.5 to 10 mg/kg, sc administered for 3 consecutive days prior CCL4 challenge measured 12 to 24 hrs post challenge relative to control
[4] = test system: Mus musculus; test: Hepatoprotective activity in CCL4-induced FVB mouse assessed as increase in HO-1 expression at 2.5 to 10 mg/kg, sc administered for 3 consecutive days prior CCL4 challenge measured 12 to 24 hrs post challenge by Western blot method relative to control
[5] = test system: Mus musculus; test: Hepatoprotective activity in CCL4-induced FVB mouse assessed as effect on CYP2E1 expression at 2.5 to 10 mg/kg, sc administered for 3 consecutive days prior CCL4 challenge measured 12 to 24 hrs post challenge by Western blot method relative to control
[6] = test system: Mus musculus; test: Hepatoprotective activity in CCL4-induced FVB mouse assessed as decrease in serum TNFalpha level at 2.5 to 10 mg/kg, sc administered for 3 consecutive days prior CCL4 challenge measured 12 to 24 hrs post challenge by ELISA relative to control
[7] = test system: Mus musculus; test: Hepatoprotective activity in CCL4-induced FVB mouse assessed as reduction in liver necrosis at 2.5 to 10 mg/kg, sc administered for 3 consecutive days prior CCL4 challenge measured 12 to 24 hrs post challenge by hematoxylin/eosin-staining method relative to control
[8] = test system: Mus musculus; test: Hepatoprotective activity in FVB mouse assessed as reduction of CCL4-induced increase of serum AST level at 2.5 to 10 mg/kg, sc administered for 3 consecutive days prior CCL4 challenge measured 12 to 24 hrs post challenge
[9] = test system: Mus musculus; test: Hepatoprotective activity in CCL4-induced FVB mouse assessed as increase in CYP2E1 p-nitrophenol activity at 2.5 to 10 mg/kg, sc administered for 3 consecutive days prior CCL4 challenge measured 12 to 24 hrs post challenge relative to control
[10] = test system: Mus musculus; test: Hepatoprotective activity in FVB mouse assessed as reduction of CCL4-induced increase of serum ALT level at 2.5 to 10 mg/kg, sc administered for 3 consecutive days prior CCL4 challenge measured 12 to 24 hrs post challenge
[11] = test system: Mus musculus; test: Hepatoprotective activity in sc dosed CCL4-induced FVB mouse assessed as reduction in liver necrosis at administered for 3 consecutive days prior CCL4 challenge measured 24 hrs post challenge by hematoxylin/eosin-staining method relative to control
[12] = test system: Mus musculus; test: Hepatoprotective activity in CCL4-induced FVB mouse assessed as decrease in COX2 expression at 2.5 to 10 mg/kg, sc administered for 3 consecutive days prior CCL4 challenge measured 12 to 24 hrs post challenge by Western blot method relative to control
[13] = test system: Mus musculus; test: Hepatoprotective activity in CCL4-induced FVB mouse assessed as decrease in cleaved caspase3-positive hepatocytes at 2.5 to 10 mg/kg, sc administered for 3 consecutive days prior CCL4 challenge measured 24 hrs post challenge by immunofluorescence staining method relative to control; conditions: Hepatocyte
[14] = test system: Mus musculus; test: Hepatoprotective activity in CCL4-induced FVB mouse assessed as decrease in liver macrophages at 2.5 to 10 mg/kg, sc administered for 3 consecutive days prior CCL4 challenge measured 24 hrs post challenge by immunofluorescence staining method relative to control
[15] = test system: Mus musculus; test: Hepatoprotective activity in CCL4-induced FVB mouse assessed as reduction in liver necrosis at 10 mg/kg, sc administered for 3 consecutive days prior CCL4 challenge measured 12 hrs post challenge by hematoxylin/eosin-staining method relative to control; set-up: dose 10 mg/kg
[16] = test system: Mus musculus; test: Hepatoprotective activity in CCL4-induced FVB mouse assessed as reduction in ROS level at 10 mg/kg, sc administered for 3 consecutive days prior CCL4 challenge measured 12 to 24 hrs post challenge by DHE-labeling method relative to control; set-up: dose 10 mg/kg

CC1=CC(=O)[C@H](c2c(O)cc(/C=C/c3ccc(O)c(O)c3)oc2=O)[C@@H](c2ccc(O)c(O)c2)O1
Activity [1]: Active | Activity [2]: Active | Activity [3]: Active | Activity [4]: Active | Activity [5]: inactive | Activity [6]: Active | Activity [7]: Active | Activity [8]: Active | Activity [9]: Active | Activity [10]: Active | Activity [11]: Dose-dependent effect | Activity [12]: Active | Activity [13]: Active | Activity [14]: Active | Activity [15]: Active | Activity [16]: Active
